Laboratory results: patent publication US8946190B2, “Medium-chain length fatty acids, salts and triglycerides in combination with gemcitabine for treatment of pancreatic cancer” (priority 2007, dated 2015)
pIC50: −log10 of the molar value.

What was measured:
Panc02 cells = assay: In vitro cytotoxicity (MTT) on pancreatic cancer cells; type: cell-based; settings: Mus musculus, 24 h cell culture
Method: This assay was performed to determine the effect of compounds of the present invention on cell cytotoxicity. Panc02 cells were incubated in presence or absence of compounds in RPMI-1640 conditioned media. After 24 hours incubation, 50 μl of 3-(4,5-dimethyl-2-thiazyl)-2,5-diphenyl-2H-tetrazolium bromide ([…]; 2 mg/ml) was added and further incubated for 4 hours. The supernatant was discarded and 100 μl of dimethylsulfoxide (DMSO) was added. Absorbance was read at 570 nm with an ELISA Tecan Sunrise plate reader. The control group consisted of cells without compounds and is referred to as 100% of viable cells. IC50 was determined using Prism software.

[1] = test system: syngeneic Panc02 pancreas tumor; assay: Panc02 mouse pancreatic cancer model, intradermal syngeneic tumor growth; type: in vivo, C57BL/6 mice; settings: for anticancer activity in the early phase of the treatment: given alone
Method: The syngeneic Panc02 is a pancreatic adenocarcinoma tumor cell line obtained from NCI (0507232). Panc02 cells are positive for Ki-Ras, p53, HerNEU and CDK. Panc02 were grown in RPMI-1640 containing 10% fetal bovine serum. At day 0, 50 μl of 7.5×10^5 viable Panc02 cells were intradermally injected to produce localized tumors in 6- to 8-week old C57BL/6 mice. The animals were then serially monitored by manual palpation for evidence of tumor. Mice were then treated every day with oral administration of vehicle (negative control), or sodium decanoate and with intraperitoneal injection of gemcitabine (50 mg/kg) at day 21, 28, 35 and 42. Mice were sacrificed between days 36 to 50. Serial tumor volume was obtained by bi-dimensional diameter measurements with calipers, using the formula 0.4 (a×b^2) where “a” was the major tumor diameter and “b” the minor perpendicular diameter. Tumors were palpable, in general, 3-5 days post-inoculation. Percentage of tumor growth is reported as the percentage of growth of the pancreatic tumor on a given day relative to that growth which is observed on the first day of treatment with medium-chain length fatty acid, or sodium salt or triglyceride or vehicle (control). T/C is defined as: Treated Tumor Growth CYO/Control Tumor Growth (%).
The effect of sodium dodecanoate and gemcitabine in pancreatic Panc02 cancer was determined as described in Example 2.

[2] = test system: orthotopic syngeneic Panc02 pancreatic tumor; assay: Panc02 mouse orthotopic pancreatic cancer model, survival; type: in vivo, C57BL/6 mice; set-up: % Survival: concentration or dose not given beside the values; settings: for % Survival: Table 2
Method: At day 0, 50 μl of 1×10^6 viable Panc02 cells per ml were injected onto the pancreas to produce orthotopic tumors in 6- to 8-week old C57BL/6 mice. Mice were then treated every day with oral administration of vehicle (negative control), or sodium decanoate and with intraperitoneal injection of gemcitabine (50 mg/kg) once a week (day 1, 8, 15, etc.).
The effect of gemcitabine and tricaprin in combination with gemcitabine in orthotopic pancreatic Panc02 cancer was determined as described in Example 3.

[3] = test system: syngeneic Panc02 pancreas tumor; assay: Panc02 mouse pancreatic cancer model, intradermal syngeneic tumor growth; type: in vivo, C57BL/6 mice
[4] = test system: metastatic pancreatic cancer; settings: pancreatic cancer patients after metastasis; cited from earlier work

## CCCCCCCCCC(=O)[O-].[Na+] [Sodium decanoate]
Panc02 cells
  pIC50: 3.28
[1]; FIG. 1, sodium decanoate oral 100 mg/kg, day 23 to 44
  inhibition of tumor growth (p<0.05): significant inhibition
[1]; FIG. 2, sodium decanoate 400 mg/kg, day 23 to 37
  tumor growth inhibition compared to control (p<0.05): significant
[1]; FIG. 2, sodium decanoate oral 100, 200 and 400 mg/kg
  inhibition of tumor growth (p<0.05): significant (p<0.05) inhibition of the tumor growth in a dose dependent fashion

## Nc1ccn([C@@H]2O[C@H](CO)[C@@H](O)C2(F)F)c(=O)n1 [Gemcitabine]
[2]; FIG. 5
  survival compared with mice that had received vehicle: prolonged survival
[2]; FIG. 5, gemcitabine 50 mg/kg once a week, sodium decanoate oral 200 mg/kg every day
  Median survival: 71 days
[2]; FIG. 7
  survival compared with mice that had received vehicle: prolonged survival
[2]; FIG. 7, gemcitabine 50 mg/kg, tricaprin oral 600 mg/kg
  Median survival: 53.5 days
[2]; day 58
  % Survival: 86%
[2]; day 72
  % Survival: 42%
[2]; day 83
  % Survival: 28%
[2]; day 87
  % Survival: 14%
[2]; day 92
  % Survival: 0%
[2]; day 92, listed as gemcitabine
  % Survival: all mice are dead
[1]; FIG. 1, gemcitabine 50 mg/kg, day 27 to 34
  inhibition of tumor growth (p<0.05): significant inhibition
[1]; FIG. 2, gemcitabine alone, day 23 to 37
  inhibition of tumor growth (p<0.05): significant (p<0.05) inhibition
[1]; FIG. 3
  anticancer activity in the early phase of the treatment: did not display anticancer activities
[1]; FIG. 4
  anticancer activity in the early phase of the treatment: did not display anticancer activities
[1]; FIG. 6, gemcitabine 50 mg/kg, day 44
  inhibition of tumor growth (p<0.05): significant inhibition
[1]; increased concentration of gemcitabine
  mortality: mortality is observed
[3]; FIG. 3, gemcitabine 25 mg/kg alone
  T/C: > 40
[3]; FIG. 3, gemcitabine 25 mg/kg, day 39
  inhibition of tumor growth (p<0.05): significant inhibition
[3]; FIG. 4, gemcitabine 10 mg/kg alone
  T/C: no T/C<40
[3]; FIG. 4, gemcitabine 10 mg/kg, day 41
  inhibition of tumor growth (p<0.05): significant inhibition
[4]
  one-year survival: 18%

## CCCCCCCCCC(=O)O [Decanoic acid]
Panc02 cells
  pIC50: 3.20

## CCCCCCCCCC(=O)[O-].[Na+] [PBI-1402]
[1]; FIG. 3
  anticancer activity in the early phase of the treatment: did not display anticancer activities
[1]; FIG. 4
  anticancer activity in the early phase of the treatment: did not display anticancer activities

## CCCCCCCCCCCC(=O)[O-].[Na+] [Sodium dodecanoate]
Panc02 cells
  pIC50: 3.82
[1]; FIG. 6, sodium dodecanoate oral 200 mg/kg, day 44
  inhibition of tumor growth (p<0.05): significant inhibition
